How the values were obtained:
Format in all cases: cell-based
Nluc enzyme = assay: Multiplex RealTime-Glo / Caspase-Glo 3/7 in MCF7 cells
Procedure: (§1) A) In a Corning 3570 assay plate, MCF7 cells were plated at 1,000 cells/well in 20 μL of cell culture media (EMEM supplemented with 0.01 mg/mL human recombinant insulin and 10% fetal bovine serum) and incubated in overnight. 10 μL of 4× REALTIME-GLO™ MT Cell Viability reagents (Promega Corporation) in media or 10 μL media only was added to the cells. 10 μL of 40 μM staurosporine in media or 10 μL media only (control) was added to the cells. The cells were incubated, and caspase activation monitored at 5.5 hrs post-reagent addition. To monitor caspase activation, 40 μL CASPASE-GLO® 3/7 Assay Reagent (Promega Corporation), either on its own (Caspase) or with 200 μM of JRW-0004, JRW-0013, or JRW-0042, was added. Reactions were incubated at RT, and luminescence was measured at 1 hr 10 min post-reagent addition on Tecan M1000 Pro plate reader.
(§2) When comparing the signal generated from the CASPASE-GLO® reagent in media only versus the signal generated in media containing REALTIME-GLO™ reagent, the signal is higher in the multiplex reaction.

Nluc = Nluc (Oplophorus gracilirostris, UniProt Q9GV45, A31E/A60N/A81I/F95D/I117V/K70R/L54V/L99Q/M102K/N193R/P142E/Q151K/Q38R/Q45L/V71I/Y165I); assay: as above; design: purchased Promega Corporation
Nluc, sequence (Q9GV45 28-196 with tags or gaps with the stated changes limits assumed): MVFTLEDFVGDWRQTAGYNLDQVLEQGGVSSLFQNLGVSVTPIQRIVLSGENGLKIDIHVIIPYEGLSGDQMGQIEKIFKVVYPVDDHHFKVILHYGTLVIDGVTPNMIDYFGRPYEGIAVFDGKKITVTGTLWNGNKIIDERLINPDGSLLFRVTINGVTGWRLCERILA
Procedure: as §1, §2

Src-Nluc fusion protein = assay: Target engagement model (Src-Nluc BRET); details: HEK293 Src-Nluc -/+ 50 μg/mL digitonin; 1 μM Dasatinib-DY605 tracer; 2 hrs
Procedure: HEK293 cells were transiently transfected with Src-Nluc fusion protein. 24 hours post-transfection, cells were treated with −/+50 μg/mL digitonin to simulate a live and lytic scenario, respectively. Intact cells and permeabilized cells were labeled with 1 μM Dasatinib-DY605 tracer (impermeable) and treated with a cell impermeable thienopyrrole compound JRW-0147 response curve for 2 hrs. 10 μM furimazine was added, and a BRET ratio 610/450 nm was recorded.

[1] = system: B2AR-Nluc or Nluc-B2AR fusion protein; assay: Cell permeability with bioluminescent imaging (HeLa, B2AR-Nluc / Nluc-B2AR); details: 30 μM compound, 10 μM furimazine
Procedure: HeLa cells were transiently transfected with Beta-2 Adrenergic Receptor-Nluc (B2AR-Nluc; C-Terminus Nluc) or Nluc-Beta-2 Adrenergic Receptor (Nluc-B2AR; N-terminus Nluc) fusion protein to anchor and orient Nluc intracellularly or extracellularly, respectively. 24 hrs post-transfection, cells were treated with −/+30 μM of a thienopyrrole compound, JRW-0147, JRW-0051, and JRW-0138. 10 μM furimazine was added, and luminescence was detected by imaging on the Olympus LV200.

SRC-Nluc or Nluc-HaloTag = assay: Inhibition of extracellular luciferase activity (SRC-Nluc / Nluc-HaloTag BRET); details: HEK293; 1 μM Dasatinib-DY605 (SRC-Nluc) or 100 nM NanoBRET-618 (Nluc-HaloTag)
Procedure: HEK293 were transiently transfected with either SRC-Nluc or Nluc-HaloTag. 24 hrs post-transfection, 20 k/cells were plated into wells of a 96-well plate (Costar 3600). 1 μM of the cell impermeable tracer Dasatinib-DY605 was added to the HEK293 SRC-Nluc expressing cells, and 100 nM of the cell permeable tracer NanoBRET-618, was added to the Nluc-HaloTag expressing cells. Both HEK293 SRC-Nluc and Nluc-HaloTag cells were exposed to a dose-response curve of JRW-0344.

HEK293 cells = assay: Cell viability and toxicity (CellTiter-Glo); details: up to 100 μM after 18 hrs
Procedure: HEK293 cells were plated at 20 k cells/well and exposed to vehicle (DMSO), digitonin (positive control for cell death), or JRW-0344 for 10 min/30 min/120 min/240 min/or 18 hrs. CellTiter-Glo (Promega Corp.) was added, and luminescence measured.

[2] = 10 μM Stauro vs Control, 200 μM compound
[3] = CASPASE-GLO 3/7 reagent with 200 μM compound, 1 hr 10 min

For `CCN(C(=O)Cn1c(C(=O)N[C@H]2CC[C@H](C(=O)OC)CC2)cc2sccc21)c1cccc(C)c1` [JRW-0013, trans-methyl-4-(4-(2-(ethyl(m-tolyl)amino)-2-oxoethyl)-4H-thieno[3,2-b]pyrrole-5-carboxamido)cyclohexane-1-carboxylate], the “Fold Cont, Media only” value (Nluc enzyme; [2]) was 6.85, the “Avg (luminescence), Media only, 10 μM Stauro” value (Nluc enzyme; [3]) was 55282 and the “Avg (luminescence), Media only, Control” value (Nluc enzyme; [3]) was 8069. For the same molecule, the “Fold Cont, Media containing RealTime-Glo” value (Nluc; [2]) was 6.29, the “Avg (luminescence), Media containing RealTime-Glo, 10 μM Stauro” value (Nluc; [3]) was 54338 and the “Avg (luminescence), Media containing RealTime-Glo, Control” value (Nluc; [3]) was 8636.
`CCN(C(=O)Cn1c(C(=O)N[C@H]2CC[C@H](C(=O)NCCCCCC(=O)O)CC2)cc2sccc21)c1cccc(C)c1` [JRW-0147, 6-(trans-4-(4-(2-(ethyl(m-tolyl)amino)-2-oxoethyl)-4H-thieno[3,2-b]pyrrole-5-carboxamido)cyclohexane-1-carboxamido)hexanoic acid] was tested, and the “Inhibition of BRET in cell debris vs inside cells (FIGS. 15B-15C)” value (Src-Nluc fusion protein) was “inhibited BRET in cell debris, but not BRET inside cells” and the “Permeability and inhibition of extracellular / intracellular Nluc by imaging (FIG. 14)” value [1] was “impermeable and inhibited extracellular Nluc and enhanced intracellular Nluc”.
For `CCN(C(=O)Cn1c(C(=O)N[C@H]2CC[C@H](C(=O)NCCCCCCS(=O)(=O)[O-])CC2)cc2sccc21)c1cccc(C)c1.[Na+]` [JRW-0344, Sodium 6-(trans-4-(4-(2-(ethyl(m-tolyl)amino)-2-oxoethyl)-4H-thieno[3,2-b]pyrrole-5-carboxamido)cyclohexane-1-carboxamido)hexane-1-sulfonate], the “Inhibition of BRET (FIGS. 20A-20C)” value (SRC-Nluc or Nluc-HaloTag) was “inhibits BRET in cell debris in the HEK293 SRC-Nluc expressing cells, but not in HEK293 Nluc-HaloTag expressing cells” and the “Toxicity (FIG. 18A)” value (HEK293 cells) was “no apparent toxicity”.
